Experimental findings from US20230303552A1, “ARYLSULFONYL DERIVATIVES AND THEIR USE AS MUSCARINIC ACETYLCHOLINE RECEPTOR M5 INHIBITORS” (Vanderbilt University, priority 2020, published 2023) are described below.

As a reminder, the IC50 is the point on the concentration scale where inhibition reaches its midpoint.

This experiment deals with T1, human M5 receptors (hM5) (Homo sapiens, UniProt P08912).
T1 construct: expressed in transfected cells
T1 sequence (P08912 1-532): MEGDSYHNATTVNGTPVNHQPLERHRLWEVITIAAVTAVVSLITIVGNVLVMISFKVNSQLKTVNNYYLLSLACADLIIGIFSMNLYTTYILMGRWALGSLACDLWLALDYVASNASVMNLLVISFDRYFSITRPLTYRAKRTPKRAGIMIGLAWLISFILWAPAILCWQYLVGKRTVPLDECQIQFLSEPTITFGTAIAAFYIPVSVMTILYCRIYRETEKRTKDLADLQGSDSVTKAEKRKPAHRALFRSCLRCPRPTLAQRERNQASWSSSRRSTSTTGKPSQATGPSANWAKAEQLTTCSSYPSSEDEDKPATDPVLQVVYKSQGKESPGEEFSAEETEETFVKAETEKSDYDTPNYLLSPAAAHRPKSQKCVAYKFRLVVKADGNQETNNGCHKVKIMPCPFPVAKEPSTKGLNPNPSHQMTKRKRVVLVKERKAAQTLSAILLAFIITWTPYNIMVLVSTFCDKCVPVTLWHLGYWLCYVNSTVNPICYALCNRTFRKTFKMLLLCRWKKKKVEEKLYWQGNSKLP
Put plainly: Cell-based functional calcium mobilization assay of mAChR M5 activity (inhibition of EC80 acetylcholine response) in CHO cells. The following applies: CHO cells stably expressing hM5; for IC50: calcium flux (Fluo-4), EC80 acetylcholine addition; for EC80 MIN: minimum of EC80 acetylcholine response, normalized to maximum acetylcholine response. Here is the method:
All functional cell-based assays were performed essentially as previously described (Marlo et al., Mol.Pharm. 2009, 75(3), 577-588; Brady et al., J. Pharm. & Exp. Ther. 2008, 327, 941-953). Initial, single point (10 µM) competitive and non-competitive inhibitor characterization was performed in stable Chinese Hamster Ovary (CHO) cell lines constitutively expressing human M5 receptors. These were plated at 15,000 cells per 20 µL per well in Greiner 384-well black-walled, TC-treated, clear-bottomed plates (Fisher) in Ham’s F12 medium supplemented with 10% FBS and 20 mM HEPES. Cells were incubated overnight at 37° C. under 5% CO2. The following day, medium was exchanged with assay buffer (Hank’s Balanced Salt Solution supplemented with 20 mM HEPES and 2.5 mM Probenecid, pH 7.4) leaving 20 µL of assay buffer in each well. This was followed by the addition of 20 µL of 2.3 µM of Fluo-4 AM (Invitrogen) in assay buffer (final concentration 1.15 µM). The cells were then incubated 50 minutes at 37° C. under 5% CO2. The assay buffer plus dye was then exchanged with fresh assay buffer leaving a volume of 20 µL in each well. Test compounds were diluted into assay buffer to a 2X (20 µM) concentration in 0.2% dimethylsulfoxide (DMSO) in columns 3 - 22 with matching DMSO concentration in columns 1, 2, 23, and […]; compounds were added to the assay for a final concentration of 10 µM and a final DMSO concentration of 0.1%. Acetylcholine (Sigma-Aldrich) was prepared to provide 5X concentrations of EC20, EC80, and ECmax in the triple-addition assay, providing a signal window to view agonism, potentiation, and inhibition of the acetylcholine response as well as a means to normalize to the maximum acetylcholine response.
Either an FDSS (Hamamatsu) or Panoptic (WaveFront Biosciences) kinetic imaging plate reader was used for assay execution and measurement of calcium flux. After establishing baseline fluorescence, test compounds (20 µL) were added to the cells using the reader’s integrated pipettor and allowed to equilibrate for 140 seconds before addition of the EC20 concentration of acetylcholine (10 µL) along with vehicle in selected DMSO-only wells in the outer two columns. The EC80 concentration of acetylcholine (10 µL) was added 125 seconds after the EC20 addition along with ECmax concentration in the wells receiving vehicle in the second addition. The raw fluorescence data from each well was normalized to the corresponding initial fluorescence reading (static ratio). The maximum fluorescence value following each addition was determined and the minimum value within that same timeframe was subtracted for each well then normalized to the average of the ECmax maximum-minimum response, providing a %AChmax value for each addition for each well. The single point values represent mean values determined within the EC80 addition timeframe obtained from at least three independent determinations performed in triplicate or greater (error bars represent +/- SEM) unless otherwise specified.
Further characterization of competitive and non-competitive inhibitor compounds (compound potency and mAChR subtype-selectivity) was performed on the FDSS with calcium mobilization assays performed as previously described (Marlo et al., 2009; Brady et al., 2008) and in a format similar to that described above using the same reagents. CHO cells stably expressing hM1, hM2/Gqi5, hM3, hM4/Gqi5, hM5, rM1, rM2/Gqi5, rM3, rM4/Gqi5, or rMs were plated in the manner described above. A ten-point concentration range of test compound was serial diluted in assay buffer to 2X final concentration and acetylcholine was diluted in assay buffer to 5X of the EC20 and EC80 concentrations, determined empirically and 5X maximal (2 mM final concentration) stock concentrations. FDSS protocols were carried out as described above; the static ratio was calculated and the minimum response subtracted from the maximum response within the timeframe of each addition. […]
(In general: A change in cytosolic calcium serves as a functional read-out for many receptors and channels.)

Turning to `CC1Cc2cc(S(=O)(=O)N3CC[C@@H](C(=O)Nc4ccc5scnc5c4)C3)ccc2O1` (mixture of isomers) [Compound 88, (3R)-N-(benzo[d]thiazol-5-yl)-1-((2-methyl-2,3-dihydrobenzofuran-5-yl)sulfonyll)pyrrolidine-3-carboxamide], the IC50 is 4.96 µM and the “EC80 MIN” value worked out at 3%.

As to `CC1COc2ccc(S(=O)(=O)N3CC[C@@H](C(=O)Nc4ccc5scnc5c4)C3)cc21` (mixture of isomers) [Compound 132, (3R)-N-(benzo[d]thiazol-5-yl)-1-((3-methyl-2,3-dihydrobenzofuran-5-yl)sulfonyl)pyrrolidine-3-carboxainide], the IC50 was 0.042 µM and the “EC80 MIN” value stood at 2%.

As for `CC1COc2ccc(S(=O)(=O)N3C[C@H](C(=O)Nc4ccc5scnc5c4)[C@@H](C)C3)cc21` (mixture of isomers) [Compound 133, (3R,4R)-N-(benzo[d]thiazol-5-yl)-4-methyl-1-((3-methyl-2,3-dihydrobenzofuran-5-yl)sulfonyl)pyrrolidine-3-carboxamide], the IC50 came to 0.156 µM and the “EC80 MIN” value was found to be 3%.

As to `Cc1cc2c(cc1S(=O)(=O)N1CC[C@@H](C(=O)Nc3ccc4scnc4c3)C1)C(C)CO2` (mixture of isomers) [Compound 146, (3R)-N-(benzo[d]thiazol-5-yl)-1-((3,6-dimethyl-2,3-dihydrobenzofuran-5-yl)sulfonyl)pyrrolidinc-3-carboxamide], the IC50 came out at 0.074 µM and the “EC80 MIN” value is 2%.

As for `O=C(Nc1ccc2scnc2c1)C1CCN(S(=O)(=O)c2ccc3c(c2)CCO3)C1` (racemic) [Compound 15, (rac)-N-(benzo[d]thiazol-5-yl)-1-((2,3-dihydrobcnzofuran-5-yl)sulfonyl)pyrrolidine-3-carboxamide], the IC50 amounted to 0.047 µM and the “EC80 MIN” value is on record as 2%.

For the compound `O=C(Nc1ccc2scnc2c1)C12CC1CN(S(=O)(=O)c1ccc3c(c1)CCO3)C2` (racemic) [Compound 23, (rac)-N-(benzo[d]thiazol-5-yl)-3-((2,3-dihydrobenzofuran-5-yl)sulfonyl)-3-azabicyclo[3.1.0]hexane-1-carboxamide], the IC50 was 0.248 µM and the “EC80 MIN” value stood at 2%.

With `O=C(Nc1ccc2scnc2c1)C1CCN(S(=O)(=O)c2cccnc2)C1` (racemic) [Compound 38, (rac)-N-(benzo[d]thiazol-5-yl)-1-(pyridin-3-ylsulfonyl)pyrrolidine-3-carboxamide], the IC50 is over 10 µM and the “EC80 MIN” value amounted to 29%.

For `O=C(Nc1ccc2scnc2c1)C12CC1CN(S(=O)(=O)c1cccnc1)C2` (racemic) [Compound 40, (rac)-N-(benzo[d]thiazol-5-yl)-3-(pyridin-3-ylsulfonyl)-3-azabicyclo[3.1.0]hexane-1-carboxamide], the IC50 is over 10 µM and the “EC80 MIN” value came out at 53%.

For the compound `O=C(Nc1ccc2scnc2c1)C12CC1CN(S(=O)(=O)c1cc3c(cc1F)OCC3)C2` (racemic) [Compound 43, (rac)-N-(benzo[d]thiazol-5-yl)-3-((6-fluoro-2,3-dihydrobenzofuran-5-yl)sulfonyl)-3-azabicyclo[3.1.0]hexane-1-carboxamide], the IC50 was found to be 0.202 µM and the “EC80 MIN” value came to 3%.

For the compound `O=C(Nc1ccc2scnc2c1)[C@H]1CCN(S(=O)(=O)c2ccc3c(c2)CCO3)C[C@H]1F` (racemic) [Compound 69, cis-(rac)-N-(benzo[d]thiazol-5-yl)-1-((2,3-dihydrobenzofuran-5-yl)sulfonyl)-3-fluoropiperidine-4-carboxamide], the IC50 stood at 2.28 µM and the “EC80 MIN” value stood at 2%.

Regarding `O=C(Nc1ccc2scnc2c1)[C@H]1CCN(S(=O)(=O)c2ccc3ncsc3c2)C[C@H]1F` (racemic) [Compound 70, cis-(rac)-N-(benzo[d]|thiazol-5-yl-1)-1-(benzo[d]thiazol-6-ylsulfonyl)-3-fluoropiperidine-4-carboxamide], the IC50 was over 10 µM and the “EC80 MIN” value is given as 63%.

As to `O=C(Nc1ccc2scnc2c1)[C@H]1CCN(S(=O)(=O)c2ccc(Cl)nc2)C[C@H]1F` (racemic) [Compound 71, cis-(rac)-N-(benzo[d]thiazol-5-yl)-1-((6-chloropyridin-3-yl)sulfonyl)-3-fluoropiperidine-4-carboxamide], the IC50 is over 10 µM and the “EC80 MIN” value is given as 20%.

As to `O=C(Nc1ccc2scnc2c1)[C@H]1CCN(S(=O)(=O)c2cccnc2)C[C@H]1F` (racemic) [Compound 72, cis-(rac)-N-(benzo[d]thiazol-5-yl)-3-fluoro-1-(pyridin-3-ylsulfonyl)piperidine-4-carboxamide], the IC50 is over 10 µM and the “EC80 MIN” value is 13%.

Turning to `Cc1nn(C)cc1S(=O)(=O)N1CC[C@H](C(=O)Nc2ccc3scnc3c2)[C@H](F)C1` (racemic) [Compound 73, cis-(rac)-N-(benzo[d]thiazol-5-yl)-1-((1,3-dimethyl-1H-pyrazol-4-yl)sulfonyl)-3-fluoropiperidine-4-carboxamide], the IC50 is over 10 µM and the “EC80 MIN” value is reported as 45%.

For the compound `O=C(Nc1ccc2scnc2c1)[C@H]1CCN(S(=O)(=O)c2cccc3nsnc23)C[C@H]1F` (racemic) [Compound 75, cis-(rac)-1-(benzo[c][1,2,5]thiadiazol-4-ylsulfonyl)-N-(benzo[d]thiazol-5-yl)-3-fluoropiperidine-4-carboxamide], the IC50 was 4.26 µM and the “EC80 MIN” value was determined as 18%.

As for `O=C(Nc1ccc2scnc2c1)[C@H]1CCN(S(=O)(=O)c2ccc3ncsc3c2)C[C@@H]1F` (racemic) [Compound 77, trans-(rac)-N-(benzo[d]thiazol-5-yl)-1-(benzo[d]thiazol-6-ylsulfony1)-3-fluoropiperidine-4-carboxamide], the IC50 came to 0.209 µM and the “EC80 MIN” value came out at 2%.

`O=C(Nc1ccc2scnc2c1)[C@H]1CCN(S(=O)(=O)c2ccc(Cl)nc2)C[C@@H]1F` (racemic) [Compound 79, trans-(rac)-N-(benzo[d]thiazol-5-yl)-1-((6-chloropyridin-3-yl)sulfonyl)-3-fluoropiperidine-4-carboxamide]: the IC50 is 0.139 µM and the “EC80 MIN” value is given as 2%.

With `Cc1nn(C)cc1S(=O)(=O)N1CC[C@H](C(=O)Nc2ccc3scnc3c2)[C@@H](F)C1` (racemic) [Compound 80, trans-(rac)-N-(benzo[d]thiazol-5-yl)-1-((1,3-dimethyl-1H-pyrazol-4-yl)sulfonyl1)-3-fluoropiperidine-4-carboxamide], the IC50 came to 0.312 µM and the “EC80 MIN” value is 3%.
